The record followed here is patent US7700782B2, “Compounds 569” (AstraZeneca AB, priority 2007, dated 2010).

Each structure is given as a SMILES string. Where a name gives a salt, the structure may show the parent alone.

In the test the target is T1, Adrenergic β2 (Homo sapiens, UniProt P07550).
T1 construct: Adherent H292 cells were removed from tissue culture flasks; endogenous in cells; host or cells: H292 cells
T1 sequence (P07550 whole entry): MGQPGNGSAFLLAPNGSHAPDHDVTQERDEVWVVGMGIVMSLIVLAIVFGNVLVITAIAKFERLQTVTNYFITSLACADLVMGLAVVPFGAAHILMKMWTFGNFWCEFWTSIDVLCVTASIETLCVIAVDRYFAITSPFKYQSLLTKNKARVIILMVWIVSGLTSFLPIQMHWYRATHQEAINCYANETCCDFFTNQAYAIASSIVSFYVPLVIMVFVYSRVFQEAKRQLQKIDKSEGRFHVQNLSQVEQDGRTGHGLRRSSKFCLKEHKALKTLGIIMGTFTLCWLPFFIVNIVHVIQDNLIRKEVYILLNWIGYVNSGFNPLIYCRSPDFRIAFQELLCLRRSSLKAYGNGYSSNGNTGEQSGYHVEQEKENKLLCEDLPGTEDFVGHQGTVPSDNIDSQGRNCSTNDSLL
Nature of the test: Adrenergic β2 mediated cAMP production in H292 cells (AlphaScreen cAMP detection). The class given is cell-based. The settings on record: Intrinsic Activity, fraction relative to the maximum activity determined for formoterol. The protocol:
Adrenergic β2 Mediated cAMP Production
H292 cells were grown in 225 cm2 flasks incubator at 37° C., 5% CO2 in RPMI medium containing, 10% (v/v) FBS (foetal bovine serum) and 2 mM L-glutamine.
Adherent H292 cells were removed from tissue culture flasks by treatment with Accutase™ cell detachment solution for 15 minutes. Flasks were incubated for 15 minutes in a humidified incubator at 37° C., 5% CO2. Detached cells were re-suspended in RPMI media (containing 10% (v/v) FBS and 2 mM L-glutamine) at 0.05×10^6 cells per mL. 5000 cells in 100 μL were added to each well of a tissue-culture-treated 96-well plate and the cells incubated overnight in a humidified incubator at 37° C., 5% CO2. The culture media was removed and cells were washed twice with 100 μL assay buffer and replaced with 50 μL assay buffer (HBSS solution containing 10 mM HEPES pH 7.4 and 5 mM glucose). Cells were rested at room temperature for 20 minutes after which time 25 μL of rolipram (1.2 mM made up in assay buffer containing 2.4% (v/v) dimethylsulphoxide) was added. Cells were incubated with rolipram for 10 minutes after which time test compounds were added and the cells were incubated for 60 minutes at room temperature. The final rolipram concentration in the assay was 300 μM and final vehicle concentration was 1.6% (v/v) dimethylsulphoxide. The reaction was stopped by removing supernatants, washing once with 100 μL assay buffer and replacing with 50 μL lysis buffer. The cell monolayer was frozen at −80° C. for 30 minutes (or overnight).
The concentration of cAMP (cyclic adenosine monophosphate) in the cell lysate was determined using AlphaScreen™ methodology. The frozen cell plate was thawed for 20 minutes on a plate shaker then 10 μL of the cell lysate was transferred to a 96-well white plate. 40 μL of mixed AlphaScreen™ detection beads pre-incubated with biotinylated cAMP, was added to each well and the plate incubated at room temperature for 10 hours in the dark. The AlphaScreen™ signal was measured using an EnVision spectrophotometer (Perkin-Elmer Inc.) with the recommended manufacturer's settings. cAMP concentrations were determined by reference to a calibration curve determined in the same experiment using standard cAMP concentrations. Concentration response curves for agonists were constructed and data was fitted to a four parameter logistic equation to determine both the pEC50 and Intrinsic Activity. Intrinsic Activity was expressed as a fraction relative to the maximum activity determined for formoterol in each experiment.
(In general: cAMP levels reflect the balance of adenylyl cyclase and phosphodiesterase activity.)
In the case of `CC(C)N(CCNCCc1ccc(O)c2[nH]c(=O)sc12)C(=O)CCNCCc1ccccc1` [Example 1, N-(2-{[2-(4-Hydroxy-2-oxo-2,3-dihydro-1,3-benzothiazol-7-yl)ethyl]amino}ethyl)-N-isopropyl-N^3-(2-phenylethyl)-β-alaninamide bis-trifluoroacetic acid salt], the “β2 Int Act” value came to 0.78.

`CC(C)N(CCNCCc1ccc(O)c2[nH]c(=O)sc12)C(=O)CCNCCc1ccc(Cl)cc1` [Example 3, N^3-[2-(4-Chlorophenyl)ethyl]-N-(2-{[2-(4-hydroxy-2-oxo-2,3-dihydro-1,3-benzothiazol-7-yl)ethyl]amino}ethyl)-N-isopropyl-β-alaninamide bis-trifluoroacetic acid salt]: the “β2 Int Act” value was 0.34.

As for `O=C(CCNCCc1ccccc1)N(CCNCCc1ccc(O)c2[nH]c(=O)sc12)C1CCC(F)(F)CC1` [Example 4, N-(4,4-Difluorocyclohexyl)-N-(2-{[2-(4-hydroxy-2-oxo-2,3-dihydro-1,3-benzothiazol-7-yl)ethyl]amino}ethyl)-N^3-(2-phenylethyl)-β-alaninamide bis-trifluoroacetic acid salt], the “β2 Int Act” value worked out at 0.79.

On to `O=C(CCNCCc1ccccc1)N(CCNCCc1ccc(O)c2[nH]c(=O)sc12)C1CCCCC1` [Example 5, N-Cyclohexyl-N-(2-{[2-(4-hydroxy-2-oxo-2,3-dihydro-1,3-benzothiazol-7-yl)ethyl]amino}ethyl)-N^3-(2-phenylethyl)-β-alaninamide bis-trifluoroacetic acid salt], for which the “β2 Int Act” value was 0.83.

Turning to `CC(C)(C)CN(CCNCCc1ccc(O)c2[nH]c(=O)sc12)C(=O)CCNCCc1ccccc1` [Example 6, N-(2,2-Dimethylpropyl)-N-(2-{[2-(4-hydroxy-2-oxo-2,3-dihydro-1,3-benzothiazol-7-yl)ethyl]amino}ethyl)-N^3-(2-phenylethyl)-β-alaninamide bis-trifluoroacetic acid salt], the “β2 Int Act” value is listed as 0.89.

Turning to `CC(C)(C)CN(CCNCCc1ccc(O)c2[nH]c(=O)sc12)C(=O)CCNCCc1cccc(Cl)c1` [Example 7, N^3-[2-(3-Chlorophenyl)ethyl]-N-(2,2-dimethylpropyl)-N-(2-{[2-(4-hydroxy-2-oxo-2,3-dihydro-1,3-benzothiazol-7-yl)ethyl]amino}ethyl)-β-alaninamide bis-trifluoroacetic acid salt], the “β2 Int Act” value turned out to be 0.68.

With `CC(C)(C)CN(CCNCCc1ccc(O)c2[nH]c(=O)sc12)C(=O)CCNCCc1ccc(Cl)cc1` [Example 8, N^3-[2-(4-Chlorophenyl)ethyl]-N-(2,2-dimethylpropyl)-N-(2-{[2-(4-hydroxy-2-oxo-2,3-dihydro-1,3-benzothiazol-7-yl)ethyl]amino}ethyl)-β-alaninamide bis-trifluoroacetic acid salt], the “β2 Int Act” value was found to be 0.73.

`CC(C)(C)CN(CCNCCc1ccc(O)c2[nH]c(=O)sc12)C(=O)CCNCCc1ccc(Cl)c(Cl)c1` [Example 9, N^3-[2-(3,4-Dichlorophenyl)ethyl]-N-(2,2-dimethylpropyl)-N-(2-{[2-(4-hydroxy-2-oxo-2,3-dihydro-1,3-benzothiazol-7-yl)ethyl]amino}ethyl)-β-alaninamide bis-trifluoroacetic acid salt]: the “β2 Int Act” value was determined as 0.65.

Regarding `Cc1cccc(CCNCCC(=O)N(CCNCCc2ccc(O)c3[nH]c(=O)sc23)CC(C)(C)C)c1` [Example 10, N-(2,2-Dimethylpropyl)-N-(2-{[2-(4-hydroxy-2-oxo-2,3-dihydro-1,3-benzothiazol-7-yl)ethyl]amino}ethyl)-N^3-[2-(3-methylphenyl)ethyl]-β-alaninamide bis-trifluoroacetic acid salt], the “β2 Int Act” value is 0.69.

Consider `C[C@H](CNCCC(=O)N(CCNCCc1ccc(O)c2[nH]c(=O)sc12)CC(C)(C)C)c1ccccc1` [Example 11, N-(2,2-Dimethylpropyl)-N-(2-{[2-(4-hydroxy-2-oxo-2,3-dihydro-1,3-benzothiazol-7-yl)ethyl]amino}ethyl)-N^3-[(2S)-2-phenylpropyl]-β-alaninamide bis-trifluoroacetic acid salt], for which the “β2 Int Act” value was determined as 0.84.

Regarding `O=C(CCNCCc1cccc(Cl)c1)N(CCNCCc1ccc(O)c2[nH]c(=O)sc12)C1CCCCC1` [Example 12, N^3-[2-(3-Chlorophenyl)ethyl]-N-cyclohexyl-N-(2-{[2-(4-hydroxy-2-oxo-2,3-dihydro-1,3-benzothiazol-7-yl)ethyl]amino}ethyl)-β-alaninamide bis-trifluoroacetic acid salt], the “β2 Int Act” value worked out at 0.87.

Turning to `O=C(CCNCCc1ccc(Cl)cc1)N(CCNCCc1ccc(O)c2[nH]c(=O)sc12)C1CCCCC1` [Example 13, N^3-[2-(4-Chlorophenyl)ethyl]-N-cyclohexyl-N-(2-{[2-(4-hydroxy-2-oxo-2,3-dihydro-1,3-benzothiazol-7-yl)ethyl]amino}ethyl)-β-alaninamide bis-trifluoroacetic acid salt], the “β2 Int Act” value is recorded as 0.71.

As for `Cc1cccc(CCNCCC(=O)N(CCNCCc2ccc(O)c3[nH]c(=O)sc23)C2CCCCC2)c1` [Example 14, N-Cyclohexyl-N-(2-{[2-(4-hydroxy-2-oxo-2,3-dihydro-1,3-benzothiazol-7-yl)ethyl]amino}ethyl)-N^3-[2-(3-methylphenyl)ethyl]-β-alaninamide bis-trifluoroacetic acid salt], the “β2 Int Act” value is recorded as 0.84.

Consider `O=C(CCNCCc1ccc(F)cc1)N(CCNCCc1ccc(O)c2[nH]c(=O)sc12)C1CCCCC1` [Example 16, N-Cyclohexyl-N^3-[2-(4-fluorophenyl)ethyl]-N-(2-{[2-(4-hydroxy-2-oxo-2,3-dihydro-1,3-benzothiazol-7-yl)ethyl]amino}ethyl)-β-alaninamide bis-trifluoroacetic acid salt], for which the “β2 Int Act” value was 0.91.

Regarding `O=C(CCNCCc1ccccc1Cl)N(CCNCCc1ccc(O)c2[nH]c(=O)sc12)C1CCCCC1` [Example 17, N^3-[2-(2-Chlorophenyl)ethyl]-N-cyclohexyl-N-(2-{[2-(4-hydroxy-2-oxo-2,3-dihydro-1,3-benzothiazol-7-yl)ethyl]amino}ethyl)-β-alaninamide bis-trifluoroacetic salt], the “β2 Int Act” value was found to be 0.90.

As for `C[C@H](CNCCC(=O)N(CCNCCc1ccc(O)c2[nH]c(=O)sc12)C1CCCCC1)c1ccccc1` [Example 18, N-Cyclohexyl-N-(2-{[2-(4-hydroxy-2-oxo-2,3-dihydro-1,3-benzothiazol-7-yl)ethyl]amino}ethyl)-N^3-[(2S)-2-phenylpropyl]-β-alaninamide bis-trifluoroacetic acid salt], the “β2 Int Act” value is reported as 0.89.

On to `CC(C)(Cc1ccccc1)NCCC(=O)N(CCNCCc1ccc(O)c2[nH]c(=O)sc12)C1CCCCC1` [Example 19, N-Cyclohexyl-N^3-(1,1-dimethyl-2-phenylethyl)-N-(2-{[2-(4-hydroxy-2-oxo-2,3-dihydro-1,3-benzothiazol-7-yl)ethyl]amino}ethyl)-β-alaninamide bis-trifluoroacetic acid salt], for which the “β2 Int Act” value was 0.70.

As to `C[C@@H](CNCCC(=O)N(CCNCCc1ccc(O)c2[nH]c(=O)sc12)C1CCCCC1)c1ccccc1` [Example 20, N-Cyclohexyl-N-(2-{[2-(4-hydroxy-2-oxo-2,3-dihydro-1,3-benzothiazol-7-yl)ethyl]amino}ethyl)-N^3-[(2R)-2-phenylpropyl]-β-alaninamide bis-trifluoroacetic acid salt], the “β2 Int Act” value is given as 0.97.
